In patent publication US6806230B1, “Pyrimidine derivatives and herbicides containing them” (Kumiai Chemical Industry Co., Ltd., priority 1999, dated 2004):

system: barnyard grass (Ec); experiment: Test Example 2: herbicidal effects by upland soil treatment; type: in vivo; set-up: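 0-5 growth inhibition grade; 5 = over 90%; 4 = 70-90%; 3 = 50-70%; 2 = 30-50%; 1 = 10-30%; 0 = under 10%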; settings: dose 100 g active ingredient per 10 ares, examined on the 21st day after treatment
Experimental: In a 80 cm^2 plastic pot, upland soil was filled, and seeds of barnyard grass (Ec) and green foxtail (Se) were sown and covered with soil. A wettable powder prepared in accordance with Formulation Example 1 was diluted with water and uniformly applied to the soil surface by means of a small size spray at a rate of 100 l per 10 ares, so that the dose of the active ingredient would be 100 g per 10 ares. Thereafter, cultivation was carried out in a green house, and on the 21st day after the treatment, the herbicidal effects were examined in accordance with the standards as identified in Table 44.
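Wherever Herbicidal effect index, Eo is given: 0-5 growth inhibition grade; 5 = over 90%; 4 = 70-90%; 3 = 50-70%; 2 = 30-50%; 1 = 10-30%; 0 = under 10%.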

Compound	Ec (herbicidal effects, index)
Cc1ccccc1C(c1cncnc1C(F)(F)F)N(C)C(=O)Cc1ccccc1 (racemic) [1-550]	5
CON=Cc1ncncc1C(C(C)C)N(C)C(=O)Cc1ccc(C)cc1 (racemic) [1-499]	5
CCc1ncncc1C(C(C)C)N(C)C(=O)Cc1ccc(F)cc1 (racemic) [1-433]	5
CCOC(OCC)C(c1cncnc1C(C)C)N(C)C(=O)OCc1ccccc1 (racemic) [1-458]	5
CC(C)c1ncncc1C(C(C)C)N(C)C(=O)Cc1ccc(C(F)(F)F)cc1 (racemic) [1-310]	5
CC(C)c1ncncc1C(C(C)C)N(C)C(=O)Cc1ccsc1 (racemic) [2-24]	5
CCN(C(=O)Cc1ccsc1)C(c1cncnc1C(F)(F)F)C(C)C (racemic) [2-10]	5
CCN(C(=O)Cc1cccs1)C(c1cncnc1C(F)(F)F)C(C)C (racemic) [2-9]	5
CC(C)c1ncncc1C(C(C)C)N(C)C(=O)N(C)c1ccc(F)cc1 (racemic) [1-429]	5
CSCC(c1cncnc1C(F)(F)F)N(C)C(=O)Cc1ccc(Cl)cc1 (racemic) [1-414]	4

system: monochoria (Mo); experiment: Test Example 1: herbicidal effects by flooded paddy field treatment; type: in vivo; set-up: herbicidal effects, Mo (monochoria):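 0-5 growth inhibition grade; 5 = over 90%; 4 = 70-90%; 3 = 50-70%; 2 = 30-50%; 1 = 10-30%; 0 = under 10%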; settings: dose 100 g active ingredient per 10 ares, examined on the 21st day after treatment, standards of Table 44;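 on Herbicidal effect index, Mo: 0-5 growth inhibition grade; 5 = over 90%; 4 = 70-90%; 3 = 50-70%; 2 = 30-50%; 1 = 10-30%; 0 = under 10%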
Experimental: (§1) In a 100 cm^2 plastic pot, paddy field soil was filled and paddled. Then, seeds of barnyard grass (Eo) and monochoria (Mo) were sown, and water was introduced to a depth of 3 cm. Next day, a wettable powder prepared in accordance with Formulation Example 1 was diluted with water and dropwise applied to the water surface. The dose was 100 g of the active ingredient per 10 ares. Thereafter, cultivation was carried out in a green house, and on the 21st day after the treatment, the herbicidal effects were examined in accordance with the standards as identified in Table 44.

Compound	herbicidal effects, Mo (monochoria)
CC(c1cncnc1C(C)(C)C)N(C)C(=O)Cc1ccccc1 (racemic) [1-188]	5
COc1ccccc1C(c1cncnc1C(F)(F)F)N(C)C(=O)Cc1ccc(C)cc1 (racemic) [1-491]	5
Cc1ccc(C(C)(C)C(=O)N(C)C(c2cncnc2C(F)(F)F)C(C)C)cc1 (racemic) [1-175]	5
Cc1ccc(CC(=O)N(C)C(c2cncnc2-c2ccccc2)C(C)C)cc1 (racemic) [1-325]	5
CC(C)C(c1cncnc1C(F)(F)F)N(C)C(=O)CSc1ccc(Cl)cc1 (racemic) [1-183]	5
Cc1ccccc1C(c1cncnc1C(F)(F)F)N(C)C(=O)Cc1ccccc1 (racemic) [1-550]	5
CON=Cc1ncncc1C(C(C)C)N(C)C(=O)Cc1ccc(C)cc1 (racemic) [1-499]	5
CCc1ncncc1C(C(C)C)N(C)C(=O)Cc1ccc(F)cc1 (racemic) [1-433]	5
CCOC(OCC)C(c1cncnc1C(C)C)N(C)C(=O)OCc1ccccc1 (racemic) [1-458]	5
CC(C)c1ncncc1C(C(C)C)N(C)C(=O)Cc1ccc(C(F)(F)F)cc1 (racemic) [1-310]	5
CC(C)c1ncncc1C(C(C)C)N(C)C(=O)Cc1ccsc1 (racemic) [2-24]	5
CCN(C(=O)Cc1ccsc1)C(c1cncnc1C(F)(F)F)C(C)C (racemic) [2-10]	5
CCN(C(=O)Cc1cccs1)C(c1cncnc1C(F)(F)F)C(C)C (racemic) [2-9]	5
CC(C)c1ncncc1C(C(C)C)N(C)C(=O)N(C)c1ccc(F)cc1 (racemic) [1-429]	5
CSCC(c1cncnc1C(F)(F)F)N(C)C(=O)Cc1ccc(Cl)cc1 (racemic) [1-414]	5

same assay, conditions: dose 100 gai/10a, examined on 21st day after treatment, index 0-5 per Table 44

Compound	Herbicidal effect index, Mo
Cc1ccc(CC(=O)N(C)C(c2cncnc2C(F)(F)Cl)C2CC2)cc1 (racemic) [Compound 1-93]	5
CC(C)C(c1cncnc1C(F)(F)F)N(C)C(=O)C=Cc1ccc(Cl)cc1 (racemic) [Compound 1-86]	5
CC(C)C(c1cncnc1C(F)(F)F)N(C)C(=O)Cc1ccc(S(C)(=O)=O)cc1 (racemic) [Compound 1-104]	5

system: barnyard grass (Eo); experiment: as above; type: in vivo; set-up: herbicidal effects, Eo (barnyard grass):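 0-5 growth inhibition grade; 5 = over 90%; 4 = 70-90%; 3 = 50-70%; 2 = 30-50%; 1 = 10-30%; 0 = under 10%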; settings: dose 100 g active ingredient per 10 ares, examined on the 21st day after treatment, standards of Table 44
Experimental: as §1

Compound	herbicidal effects, Eo (barnyard grass)
CC(c1cncnc1C(C)(C)C)N(C)C(=O)Cc1ccccc1 (racemic) [1-188]	5
COc1ccccc1C(c1cncnc1C(F)(F)F)N(C)C(=O)Cc1ccc(C)cc1 (racemic) [1-491]	5
Cc1ccc(C(C)(C)C(=O)N(C)C(c2cncnc2C(F)(F)F)C(C)C)cc1 (racemic) [1-175]	5
Cc1ccc(CC(=O)N(C)C(c2cncnc2-c2ccccc2)C(C)C)cc1 (racemic) [1-325]	5
CC(C)C(c1cncnc1C(F)(F)F)N(C)C(=O)CSc1ccc(Cl)cc1 (racemic) [1-183]	5
Cc1ccccc1C(c1cncnc1C(F)(F)F)N(C)C(=O)Cc1ccccc1 (racemic) [1-550]	5
CON=Cc1ncncc1C(C(C)C)N(C)C(=O)Cc1ccc(C)cc1 (racemic) [1-499]	5
CCc1ncncc1C(C(C)C)N(C)C(=O)Cc1ccc(F)cc1 (racemic) [1-433]	5
CCOC(OCC)C(c1cncnc1C(C)C)N(C)C(=O)OCc1ccccc1 (racemic) [1-458]	5
CC(C)c1ncncc1C(C(C)C)N(C)C(=O)Cc1ccc(C(F)(F)F)cc1 (racemic) [1-310]	5
CC(C)c1ncncc1C(C(C)C)N(C)C(=O)Cc1ccsc1 (racemic) [2-24]	5
CCN(C(=O)Cc1ccsc1)C(c1cncnc1C(F)(F)F)C(C)C (racemic) [2-10]	5
CCN(C(=O)Cc1cccs1)C(c1cncnc1C(F)(F)F)C(C)C (racemic) [2-9]	5
CC(C)c1ncncc1C(C(C)C)N(C)C(=O)N(C)c1ccc(F)cc1 (racemic) [1-429]	5
CSCC(c1cncnc1C(F)(F)F)N(C)C(=O)Cc1ccc(Cl)cc1 (racemic) [1-414]	5

same assay, conditions: dose 100 gai/10a, examined on 21st day after treatment, index 0-5 per Table 44

Compound	Herbicidal effect index, Eo
Cc1ccc(CC(=O)N(C)C(c2cncnc2C(F)(F)Cl)C2CC2)cc1 (racemic) [Compound 1-93]	5
CC(C)C(c1cncnc1C(F)(F)F)N(C)C(=O)C=Cc1ccc(Cl)cc1 (racemic) [Compound 1-86]	5
CC(C)C(c1cncnc1C(F)(F)F)N(C)C(=O)Cc1ccc(S(C)(=O)=O)cc1 (racemic) [Compound 1-104]	5

system: monochoria (Mo); experiment: Test Example 4: selectivity for a crop plant by flooded paddy field treatment; type: in vivo; set-up: scale not given here; settings: dose 25 g active ingredient per 10 ares, examined on the 21st day after treatment
Experimental: as §1, with “pot, a” for “pot,”, “sown, and rice (Or) of second leaf stage was transplanted,” for “sown,”, “was 25” for “was 100”, “standards of” for “standards as identified in”

Compound	Mo (herbicidal effects, index)
Cc1ccc(CC(=O)N(C)C(c2cncnc2C(F)(F)Cl)C2CC2)cc1 (racemic) [Compound 1-93]	5
CC(C)C(c1cncnc1C(F)(F)F)N(C)C(=O)C=Cc1ccc(Cl)cc1 (racemic) [Compound 1-86]	5

same assay, conditions: monochoria, dose 25 gai/10a, 21st day after treatment, index per Table 44

Compound	Mo (herbicidal effect index)
CC(c1cncnc1C(C)(C)C)N(C)C(=O)Cc1ccccc1 (racemic) [1-188]	5
COc1ccccc1C(c1cncnc1C(F)(F)F)N(C)C(=O)Cc1ccc(C)cc1 (racemic) [1-491]	5
Cc1ccc(C(C)(C)C(=O)N(C)C(c2cncnc2C(F)(F)F)C(C)C)cc1 (racemic) [1-175]	5
Cc1ccc(CC(=O)N(C)C(c2cncnc2-c2ccccc2)C(C)C)cc1 (racemic) [1-325]	5
CC(C)C(c1cncnc1C(F)(F)F)N(C)C(=O)CSc1ccc(Cl)cc1 (racemic) [1-183]	5
CC(C)C(c1cncnc1C(F)(F)F)N(C)C(=O)Cc1ccc(S(C)(=O)=O)cc1 (racemic) [Compound 1-104]	5

system: barnyard grass (Eo); experiment: as above; type: in vivo; set-up: scale not given here; settings: barnyard grass, dose 25 gai/10a, 21st day after treatment, index per Table 44
Experimental: as §1, with “pot, a” for “pot,”, “sown, and rice (Or) of second leaf stage was transplanted,” for “sown,”, “was 25” for “was 100”, “standards of” for “standards as identified in”

Compound	Eo (herbicidal effect index)
CC(c1cncnc1C(C)(C)C)N(C)C(=O)Cc1ccccc1 (racemic) [1-188]	5
COc1ccccc1C(c1cncnc1C(F)(F)F)N(C)C(=O)Cc1ccc(C)cc1 (racemic) [1-491]	5
Cc1ccc(C(C)(C)C(=O)N(C)C(c2cncnc2C(F)(F)F)C(C)C)cc1 (racemic) [1-175]	5
Cc1ccc(CC(=O)N(C)C(c2cncnc2-c2ccccc2)C(C)C)cc1 (racemic) [1-325]	5
CC(C)C(c1cncnc1C(F)(F)F)N(C)C(=O)CSc1ccc(Cl)cc1 (racemic) [1-183]	5
CC(C)C(c1cncnc1C(F)(F)F)N(C)C(=O)Cc1ccc(S(C)(=O)=O)cc1 (racemic) [Compound 1-104]	5

same assay, conditions: dose 25 g active ingredient per 10 ares, examined on the 21st day after treatment

Compound	Eo (herbicidal effects, index)
Cc1ccc(CC(=O)N(C)C(c2cncnc2C(F)(F)Cl)C2CC2)cc1 (racemic) [Compound 1-93]	5
CC(C)C(c1cncnc1C(F)(F)F)N(C)C(=O)C=Cc1ccc(Cl)cc1 (racemic) [Compound 1-86]	5

system: rice (Or); experiment: as above; type: in vivo; set-up: scale not given here; settings: rice transplanted at second leaf stage, dose 25 g active ingredient per 10 ares, examined on the 21st day after treatment
Experimental: as §1, with “pot, a” for “pot,”, “sown, and rice (Or) of second leaf stage was transplanted,” for “sown,”, “was 25” for “was 100”, “standards of” for “standards as identified in”

Or (effect on crop plant rice, index)	Compound
0	Cc1ccc(CC(=O)N(C)C(c2cncnc2C(F)(F)Cl)C2CC2)cc1 (racemic) [Compound 1-93]
0	CC(C)C(c1cncnc1C(F)(F)F)N(C)C(=O)C=Cc1ccc(Cl)cc1 (racemic) [Compound 1-86]

same assay, conditions: rice transplanted at second leaf stage, dose 25 gai/10a, 21st day after treatment, index per Table 44

Compound	Or (herbicidal effect index on crop)
CC(c1cncnc1C(C)(C)C)N(C)C(=O)Cc1ccccc1 (racemic) [1-188]	0
COc1ccccc1C(c1cncnc1C(F)(F)F)N(C)C(=O)Cc1ccc(C)cc1 (racemic) [1-491]	0
Cc1ccc(C(C)(C)C(=O)N(C)C(c2cncnc2C(F)(F)F)C(C)C)cc1 (racemic) [1-175]	0
Cc1ccc(CC(=O)N(C)C(c2cncnc2-c2ccccc2)C(C)C)cc1 (racemic) [1-325]	1
CC(C)C(c1cncnc1C(F)(F)F)N(C)C(=O)CSc1ccc(Cl)cc1 (racemic) [1-183]	0
CC(C)C(c1cncnc1C(F)(F)F)N(C)C(=O)Cc1ccc(S(C)(=O)=O)cc1 (racemic) [Compound 1-104]	1
